# Test results: patent US8796256B2 (Janssen Pharmaceutica NV, priority 2010, dated 2014)
# Target: T1, ERR1 (also known as ERR-α or ERR-1) (Homo sapiens, UniProt P11474)
# T1 sequence (P11474 193-421 limits assumed): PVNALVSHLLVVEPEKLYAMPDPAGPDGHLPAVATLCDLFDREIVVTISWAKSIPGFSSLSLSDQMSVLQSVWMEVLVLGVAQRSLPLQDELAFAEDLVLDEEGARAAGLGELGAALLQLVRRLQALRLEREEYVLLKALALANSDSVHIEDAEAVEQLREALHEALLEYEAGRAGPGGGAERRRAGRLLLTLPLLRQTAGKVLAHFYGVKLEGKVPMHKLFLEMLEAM
# Test: TR-FRET assay (disruption of co-activator peptide binding to ERR1 LBD)
# Type: biochemical
# Details: 6 nM 6His-ERR1LBD, 6 nM GST-SRC-2 peptide; average of 3 independent experiments
# Description: Time-Resolved Fluorescence Resonance Energy Transfer (TR-FRET) experiments were performed to examine the functional response of ERR1 (also known as ERR-α or ERR-1) ligands. The TR-FRET assay described herein relied on the conformation of ERR1 for binding to a co-activator peptide: when a test compound binds to ERR1 and alters its conformation, it can disrupt the binding of the co-activator peptide. The components of this homogeneous secondary assay included: the ^6His-tagged-ERR1LBD, a GST-labeled-hSRC2 co-activator polypeptide and a fluorescent donor/acceptor pair from CIS bio international htrf/bioassays (Bedford, Mass.) using both an α-GST Europium (Eu) Cryptate label and an α^6His-XL665 (allophycocyanin) fluorophore.
# For TR-FRET measurements, the reaction was buffered in 25 mM Tris pH 8, 2.5 mM Hepes, 20 mM KCl, 1 mM DTT, and 0.05 mg/mL BSA (delipidated). The final concentrations of reagents were 6 nM of ERR1LBD, 6 nM GST-SRC-2 peptide, 30 nM Eu cryptate, and 7.5 nM a^6His-XL665. Reactions were allowed to reach equilibrium at 25° C. for 4-18 h before collecting data on the Analyst from LJL Biosystems (Molecular Devices Sunnyvale, Calif.). […] Dose response curves were fitted using a hyperbolic equation and the data reported is the average of 3 independent experiments.
row,SMILES,EC50 [nM]
1,"CC(=O)NS(=O)(=O)CN1C(=O)S/C(=C\c2ccc3c(cnn3Cc3ccc(C(F)(F)F)cc3C(F)(F)F)c2)C1=O [Compound 71, N-({[(5Z)-5-({1-[2,4-Bis(trifluoromethyl)benzyl]-1H-indazol-5-yl}methylidene)-2,4-dioxo-1,3-thiazolidin-3-yl]methyl}sulfonyl)acetamide]",87
2,"N=C(N)NOCCN1C(=O)S/C(=C\c2ccc3c(cnn3Cc3ccc(C(F)(F)F)cc3C(F)(F)F)c2)C1=O [Compound 103, 1-{2-[(5Z)-5-({1-[2,4-Bis(trifluoromethyl)benzyl]-1H-indazol-5-yl}methylidene)-2,4-dioxo-1,3-thiazolidin-3-yl]ethoxy}guanidine]",43
3,"COC(=O)C(C1CCN(C(=O)OC(C)(C)C)CC1)N1C(=O)S/C(=C\c2ccc3c(cnn3Cc3ccc(Cl)cc3C(F)(F)F)c2)C1=O (centres unmarked) [Compound 215, tert-Butyl 4-{1-[(5Z)-5-({1-[4-chloro-2-(trifluoromethyl)benzyl]-1H-indazol-5-yl}methylidene)-2,4-dioxo-1,3-thiazolidin-3-yl]-2-methoxy-2-oxoethyl}piperidine-1-carboxylate]",61
4,"O=C1S/C(=C\c2ccc3c(cnn3Cc3ccc(Cl)cc3C(F)(F)F)c2)C(=O)N1Cc1nccn1S(=O)(=O)C(F)(F)F [Compound 411, (5Z)-5-({1-[4-Chloro-2-(trifluoromethyl)benzyl]-1H-indazol-5-yl}methylidene)-3-({1-[(trifluoromethyl)sulfonyl]-1H-imidazol-2-yl}methyl)-1,3-thiazolidine-2,4-dione]",29
5,"O=C1S/C(=C\c2ccc3c(c2)nnn3Cc2ccc(Cl)cc2C(F)(F)F)C(=O)N1Cc1nnn[nH]1 [Compound 265, (5Z)-5-({1-[4-Chloro-2-(trifluoromethyl)benzyl]-1H-benzotriazol-5-yl}methylidene)-3-(1H-tetrazol-5-ylmethyl)-1,3-thiazolidine-2,4-dione]",40
6,"O=C1S/C(=C\c2ccc3c(c2)c(Cl)nn3Cc2ccc(Cl)cc2C(F)(F)F)C(=O)N1CCN1CCCC1 [Compound 300, (5Z)-5-({3-Chloro-1-[4-chloro-2-(trifluoromethyl)benzyl]-1H-indazol-5-yl}methylidene)-3-(2-pyrrolidin-1-ylethyl)-1,3-thiazolidine-2,4-dione]",7
7,"CN(C)CCN1C(=O)S/C(=C\c2ccc3c(ccn3Cc3ccc(C(F)(F)F)cc3C(F)(F)F)c2)C1=O [Compound 240, (5Z)-5-[(1-{[2,4-Bis(trifluoromethyl)-phenyl]methyl}-1H-indol-5-yl)methylidene]-3-[2-(dimethylamino)ethyl]-1,3-thiazolidine-2,4-dione]",70
8,"COCCN1C[C@H](F)C[C@H]1CN1C(=O)S/C(=C\c2ccc3c(cnn3Cc3ccc(Cl)cc3C(F)(F)F)c2)C1=O [Compound 190, (5Z)-5-({1-[4-Chloro-2-(trifluoromethyl)benzyl]-1H-indazol-5-yl}methylidene)-3-{[(2S,4R)-4-fluoro-1-(2-methoxyethyl)pyrrolidin-2-yl]methyl}-1,3-thiazolidine-2,4-dione]",410

# The next lines start with the values.
row,EC50 [nM],SMILES
1,25,"COCCN1CCN(N2C(=O)S/C(=C\c3ccc4c(cnn4Cc4ccc(Cl)cc4C(F)(F)F)c3)C2=O)CC1 [Compound 352, (5Z)-5-({1-[4-Chloro-2-(trifluoromethyl)benzyl]-1H-indazol-5-yl}methylidene)-3-[4-(2-methoxyethyl)piperazin-1-yl]-1,3-thiazolidine-2,4-dione]"
2,57,"O=C1S/C(=C\c2ccc3c(cnn3Cc3ccc(Cl)cc3C(F)(F)F)c2)C(=O)N1C[C@@H]1CCCNC1 [Compound 95, (5Z)-5-({1-[4-Chloro-2-(trifluoromethyl)benzyl]-1H-indazol-5-yl}methylidene)-3-[(3R)-piperidin-3-ylmethyl]-1,3-thiazolidine-2,4-dione]"
3,43,"CC(C)N1C[C@@H](F)[C@H](N2C(=O)S/C(=C\c3ccc4c(cnn4Cc4ccc(Cl)cc4C(F)(F)F)c3)C2=O)C1 (relative stereo) [Compound 321, (5Z)-5-({1-[4-Chloro-2-(trifluoromethyl)benzyl]-1H-indazol-5-yl}methylidene)-3-[trans-4-fluoro-1-(1-methylethyl)pyrrolidin-3-yl]-1,3-thiazolidine-2,4-dione]"
4,67,"O=C1S/C(=C\c2ccc3c(cnn3Cc3ccc(Cl)cc3C(F)(F)F)c2)C(=O)N1C[C@H]1CCCNC1 [Compound 96, (5Z)-5-({1-[4-Chloro-2-(trifluoromethyl)benzyl]-1H-indazol-5-yl}methylidene)-3-[(3S)-piperidin-3-ylmethyl]-1,3-thiazolidine-2,4-dione]"
5,12,"O=C1S/C(=C\c2ccc3c(cnn3Cc3ccc(Cl)cc3C(F)(F)F)c2)C(=O)N1[C@@H]1CNC[C@H]1F (relative stereo) [Compound 317, (5Z)-5-({1-[4-Chloro-2-(trifluoromethyl)benzyl]-1H-indazol-5-yl}methylidene)-3-[trans-4-fluoropyrrolidin-3-yl]-1,3-thiazolidine-2,4-dione]"
6,32,"COC(=O)[C@@H]1C[C@@H](N2C(=O)S/C(=C\c3ccc4c(cnn4Cc4ccc(Cl)cc4C(F)(F)F)c3)C2=O)CN1 [Compound 180, Methyl (4R)-4-[(5Z)-5-({1-[4-chloro-2-(trifluoromethyl)benzyl]-1H-indazol-5-yl}methylidene)-2,4-dioxo-1,3-thiazolidin-3-yl]-L-prolinate]"
7,87,"CS(=O)(=O)CCN1CCC[C@H]1CN1C(=O)S/C(=C\c2ccc3c(cnn3Cc3ccc(Cl)cc3C(F)(F)F)c2)C1=O [Compound 159, (5Z)-5-({1-[4-Chloro-2-(trifluoromethyl)benzyl]-1H-indazol-5-yl}methylidene)-3-({(2S)-1-[2-(methylsulfonyl)ethyl]pyrrolidin-2-yl}methyl)-1,3-thiazolidine-2,4-dione]"
8,7,"CN1CCC(F)(CN2C(=O)S/C(=C\c3ccc4c(cnn4Cc4ccc(Cl)cc4C(F)(F)F)c3)C2=O)CC1 [Compound 304, (5Z)-5-({1-[4-Chloro-2-(trifluoromethyl)benzyl]-1H-indazol-5-yl}methylidene)-3-[(4-fluoro-1-methylpiperidin-4-yl)methyl]-1,3-thiazolidine-2,4-dione]"
9,24,CN1C[C@@H](O)[C@H](N2C(=O)S/C(=C\c3ccc4c(cnn4Cc4ccc(Cl)cc4C(F)(F)F)c3)C2=O)C1 (relative stereo) [Compound 318]
10,27,"O=C1CCNCC1N1C(=O)S/C(=C\c2ccc3c(cnn3Cc3ccc(Cl)cc3C(F)(F)F)c2)C1=O (centres unmarked) [Compound 343, (5Z)-5-({1-[4-Chloro-2-(trifluoromethyl)benzyl]-1H-indazol-5-yl}methylidene)-3-(4-oxopiperidin-3-yl)-1,3-thiazolidine-2,4-dione]"
11,≥ 10000,"O=C1S/C(=C\c2ccc3c(cnn3Cc3ccc(Cl)cc3C(F)(F)F)c2)C(=O)N1Cc1cncs1 [Compound 94, (5Z)-5-({1-[4-Chloro-2-(trifluoromethyl)benzyl]-1H-indazol-5-yl}methylidene)-3-(1,3-thiazol-5-ylmethyl)-1,3-thiazolidine-2,4-dione]"
12,830,"NC1(CN2C(=O)S/C(=C\c3ccc4c(cnn4Cc4ccc(Cl)cc4C(F)(F)F)c3)C2=O)CCC1 [Compound 314, (5Z)-3-[(1-Aminocyclobutyl)methyl]-5-({1-[4-chloro-2-(trifluoromethyl)benzyl]-1H-indazol-5-yl}methylidene)-1,3-thiazolidine-2,4-dione]"
